Assay results taken from the NIST ThermoML archive (doi:10.1021/acs.jced.7b01053).

Assay: mn = molality of the nth substance listed, in mol/kg
Settings: 293 K, 100 kPa, Liquid, Alternating current cell with electrodes

CCC(=O)[O-].OCC[NH2+]CCO [bis(2-hydroxyethyl)ammonium propanoate] + O
Settings	electrical conductivity [S/m]
m1 = 0.01926	0.109
m1 = 0.01974	0.104
m1 = 0.03749	0.196
m1 = 0.0377	0.192
m1 = 0.05722	0.296
m1 = 0.05727	0.296
m1 = 0.07596	0.375
m1 = 0.0761	0.365
m1 = 0.0957	0.456
m1 = 0.09617	0.447
m1 = 0.1142	0.528
m1 = 0.1152	0.519
m1 = 0.1335	0.601
m1 = 0.135	0.596
m1 = 0.1519	0.67
m1 = 0.1542	0.668
m1 = 0.1707	0.737
m1 = 0.1718	0.725
m1 = 0.1845	0.785
m1 = 0.1898	0.798
m1 = 0.2029	0.849
m1 = 0.2071	0.875
m1 = 0.22	0.901
m1 = 0.2243	0.942
m1 = 0.2375	0.955
m1 = 0.2406	0.997
m1 = 0.2535	1
m1 = 0.2571	1.03
m1 = 0.2696	1.05
m1 = 0.2722	1.08
m1 = 0.285	1.09
m1 = 0.2875	1.12
m1 = 0.3002	1.13
m1 = 0.3019	1.17
m1 = 0.3142	1.17
m1 = 0.3162	1.16
m1 = 0.3282	1.21
m1 = 0.3293	1.23
m1 = 0.3413	1.24
m1 = 0.3424	1.27
m1 = 0.3538	1.27
m1 = 0.3545	1.31
m1 = 0.3658	1.3
m1 = 0.366	1.35
m1 = 0.3774	1.39
m1 = 0.3775	1.32
m1 = 0.3881	1.41
m1 = 0.3884	1.36
m1 = 0.3986	1.44
m1 = 0.3992	1.39
m1 = 0.4083	1.47
m1 = 0.4092	1.41
m1 = 0.418	1.5
m1 = 0.419	1.44
m1 = 0.4271	1.53
m1 = 0.4283	1.46
m1 = 0.4361	1.55
m1 = 0.4372	1.49
m1 = 0.4445	1.57
m1 = 0.4457	1.51
m1 = 0.4527	1.6
m1 = 0.4539	1.53
m1 = 0.4617	1.56
m1 = 0.4692	1.58
m1 = 0.4759	1.59

CCCC(=O)O.OCCNCCO [diethanolamine butyrate] + O
Settings	electrical conductivity [S/m]
m1 = 0.01798	0.077
m1 = 0.01805	0.09
m1 = 0.03516	0.166
m1 = 0.03577	0.142
m1 = 0.05397	0.257
m1 = 0.05531	0.207
m1 = 0.0709	0.318
m1 = 0.07433	0.284
m1 = 0.09407	0.346
m1 = 0.09424	0.389
m1 = 0.1085	0.453
m1 = 0.1122	0.403
m1 = 0.1275	0.519
m1 = 0.1316	0.486
m1 = 0.1455	0.581
m1 = 0.1496	0.538
m1 = 0.1638	0.641
m1 = 0.1683	0.577
m1 = 0.1807	0.696
m1 = 0.186	0.597
m1 = 0.1982	0.75
m1 = 0.2035	0.651
m1 = 0.2144	0.801
m1 = 0.2203	0.694
m1 = 0.231	0.87
m1 = 0.237	0.725
m1 = 0.2464	0.912
m1 = 0.2525	0.764
m1 = 0.2616	0.954
m1 = 0.2679	0.782
m1 = 0.2758	0.994
m1 = 0.2824	0.821
m1 = 0.2899	1.03
m1 = 0.297	0.862
m1 = 0.3032	1.06
m1 = 0.3106	0.908
m1 = 0.3162	1.1
m1 = 0.324	0.95
m1 = 0.3283	1.13
m1 = 0.3321	0.98
m1 = 0.3402	1.16
m1 = 0.3438	1
m1 = 0.3514	1.19
m1 = 0.3555	1.02
m1 = 0.3623	1.22
m1 = 0.3665	1.05
m1 = 0.3726	1.24
m1 = 0.3774	1.05
m1 = 0.3826	1.27
m1 = 0.3875	1.07
m1 = 0.3917	1.29
m1 = 0.3975	1.1
m1 = 0.4022	1.32
m1 = 0.4068	1.12
m1 = 0.4115	1.35
m1 = 0.416	1.14
m1 = 0.4201	1.38
m1 = 0.4245	1.16
m1 = 0.4284	1.4
m1 = 0.433	1.18
m1 = 0.4368	1.43
m1 = 0.4446	1.45

CCCCC(=O)O.OCCNCCO [diethanolamine pentanoate] + O
Settings	electrical conductivity [S/m]
m1 = 0.01462	0.055
m1 = 0.01705	0.064
m1 = 0.03093	0.108
m1 = 0.03218	0.116
m1 = 0.04874	0.161
m1 = 0.0491	0.168
m1 = 0.06476	0.204
m1 = 0.06559	0.215
m1 = 0.08109	0.279
m1 = 0.08267	0.268
m1 = 0.09793	0.328
m1 = 0.09939	0.312
m1 = 0.1159	0.375
m1 = 0.117	0.365
m1 = 0.1326	0.42
m1 = 0.133	0.408
m1 = 0.1488	0.449
m1 = 0.1507	0.47
m1 = 0.163	0.486
m1 = 0.1668	0.512
m1 = 0.1779	0.524
m1 = 0.1838	0.557
m1 = 0.1916	0.526
m1 = 0.1994	0.595
m1 = 0.2058	0.558
m1 = 0.2152	0.634
m1 = 0.2197	0.593
m1 = 0.2297	0.669
m1 = 0.2336	0.624
m1 = 0.2447	0.706
m1 = 0.2467	0.655
m1 = 0.2584	0.739
m1 = 0.26	0.685
m1 = 0.2721	0.767
m1 = 0.2723	0.711
m1 = 0.2848	0.739
m1 = 0.2851	0.795
m1 = 0.2965	0.755
m1 = 0.2976	0.822
m1 = 0.3079	0.789
m1 = 0.3096	0.848
m1 = 0.3188	0.811
m1 = 0.3214	0.874
m1 = 0.3321	0.896
m1 = 0.3396	0.835
m1 = 0.3428	0.918
m1 = 0.3494	0.854
m1 = 0.3527	0.94
m1 = 0.3585	0.876
m1 = 0.3625	0.96
m1 = 0.3675	0.893
m1 = 0.3716	0.979
m1 = 0.376	0.914
m1 = 0.3806	0.999
m1 = 0.3844	0.925
m1 = 0.389	1.01
m1 = 0.3921	0.925
m1 = 0.3973	1.03
m1 = 0.3997	0.925
m1 = 0.4069	0.973
m1 = 0.4446	0.991
